Laboratory results: the supplement of paper PMC10307832

Assays:
Test in all cases: relative viability (nuclei count vs DMSO), 5 days (fraction); higher = more cells survive
Dactolisib + AZD7762 = compound: Cn1c(=O)n(-c2ccc(C(C)(C)C#N)cc2)c2c3cc(-c4cnc5ccccc5c4)ccc3ncc21 [Dactolisib] + NC(=O)Nc1cc(-c2cccc(F)c2)sc1C(=O)N[C@H]1CCCNC1 [AZD7762] (partner 0.2 µM)
Summary of the method: (§1)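 Relative viability divides the nuclei count in treated wells by that in vehicle wells. Lung cancer cell lines were seeded in 1536-well plates, dosed by pin tool the next day, and fixed and stained after 5 days in one step with final 0.05% Triton X-100, 1% formaldehyde and 1 ug/ml Hoechst. Dosing was a single drug or a fixed anchor-drug dose plus five library-drug doses (not always all listed) in √10 steps, and values are medians of duplicate plates imaged at 4×.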

Dactolisib + Phenformin = compound: Cn1c(=O)n(-c2ccc(C(C)(C)C#N)cc2)c2c3cc(-c4cnc5ccccc5c4)ccc3ncc21 [Dactolisib] + N=C(N)NC(=N)NCCc1ccccc1 [Phenformin] (partner 250 µM)
Summary of the method: as §1

AZ505 + Vorinostat = compound: C1CCC(CC1)N(CCNCCC2=C3C(=C(C=C2)O)NC(=O)CO3)C(=O)CCNCCC4=CC(=C(C=C4)Cl)Cl [AZ505] + O=C(CCCCCCC(=O)Nc1ccccc1)NO [Vorinostat] (partner 1 µM)
Summary of the method: as §1

AZ505 + Bortezomib = compound: C1CCC(CC1)N(CCNCCC2=C3C(=C(C=C2)O)NC(=O)CO3)C(=O)CCNCCC4=CC(=C(C=C4)Cl)Cl [AZ505] + CC(C)C[C@H](NC(=O)[C@H](Cc1ccccc1)NC(=O)c1cnccn1)B(O)O [Bortezomib] (partner 0.002 µM)
Summary of the method: as §1

| Cell Line | relative viability (Dactolisib + AZD7762; first compound 0.002 µM) | relative viability (Dactolisib + AZD7762; first compound 0.006325 µM) | relative viability (Dactolisib + AZD7762; first compound 0.02 µM) | relative viability (Dactolisib + AZD7762; first compound 0.06325 µM) | relative viability (Dactolisib + AZD7762; first compound 0.2 µM) | relative viability (Dactolisib + Phenformin; first compound 0.002 µM) | relative viability (Dactolisib + Phenformin; first compound 0.006325 µM) | relative viability (Dactolisib + Phenformin; first compound 0.02 µM) | relative viability (Dactolisib + Phenformin; first compound 0.06325 µM) | relative viability (Dactolisib + Phenformin; first compound 0.2 µM) | relative viability (AZ505 + Vorinostat; first compound 0.08 µM) | relative viability (AZ505 + Vorinostat; first compound 0.253 µM) | relative viability (AZ505 + Vorinostat; first compound 0.8 µM) | relative viability (AZ505 + Vorinostat; first compound 2.53 µM) | relative viability (AZ505 + Vorinostat; first compound 8 µM) | relative viability (AZ505 + Bortezomib; first compound 0.08 µM) | relative viability (AZ505 + Bortezomib; first compound 0.253 µM) | relative viability (AZ505 + Bortezomib; first compound 0.8 µM) | relative viability (AZ505 + Bortezomib; first compound 2.53 µM) | relative viability (AZ505 + Bortezomib; first compound 8 µM) |
| --- | --- | --- | --- | --- | --- | --- | --- | --- | --- | --- | --- | --- | --- | --- | --- | --- | --- | --- | --- | --- |
| NCI-H460 | 0.588 | 0.662 | 0.614 | 0.379 | 0.115 | 0.506 | 0.474 | 0.508 | 0.142 | 0.0635 | 0.69 | 0.912 | 0.672 | 0.71 | 0.782 | 0.945 | 1.24 | 1.04 | 1.09 | 1.11 |
| NCI-H650 | 1.04 | 1.07 | 0.9 | 0.79 | 0.469 | 0.549 | 0.475 | 0.433 | 0.389 | 0.315 | 0.395 | 0.425 | 0.348 | 0.567 | 0.556 | 0.607 | 0.793 | 0.818 | 1.02 | 0.775 |
| NCI-H1734 | 0.542 | 0.428 | 0.447 | 0.146 | 0.131 | 0.428 | 0.333 | 0.353 | 0.238 | 0.203 | 0.751 | 0.842 | 0.731 | 0.832 | 0.773 | 0.78 | 0.978 | 0.976 | 0.936 | 0.861 |
| LXF-289 | 1.14 | 1.13 | 1.19 | 1.14 | 0.862 | 0.571 | 0.499 | 0.534 | 0.518 | 0.439 | 0.807 | 0.787 | 0.808 | 0.703 | 0.787 | 0.875 |  | 1.02 | 0.975 | 1.02 |
| H3255 | 0.921 | 0.963 | 0.803 | 0.828 | 0.551 | 0.386 | 0.354 | 0.388 | 0.328 | 0.348 |  | 0.799 | 0.796 | 0.84 | 0.923 | 0.558 | 0.812 | 0.817 | 0.804 | 0.758 |
| 201T | 0.578 | 0.64 | 0.613 | 0.464 | 0.402 | 0.476 | 0.483 | 0.446 | 0.414 | 0.428 | 0.877 | 0.998 | 0.903 | 0.907 | 0.976 | 1.09 | 1.11 | 1.06 | 1.11 | 1.07 |
| NCI-H2126 | 0.946 | 0.925 | 0.949 | 0.803 | 0.623 | 0.562 | 0.513 | 0.534 | 0.435 | 0.366 | 0.724 | 0.682 | 0.751 | 0.696 | 0.757 | 1.11 | 1.09 | 1.08 | 1.09 | 1.04 |
| HOP-62 | 0.513 | 0.403 | 0.657 | 0.261 | 0.198 | 0.736 | 0.654 | 0.655 | 0.405 | 0.356 | 0.607 | 0.605 | 0.658 | 0.628 | 0.732 | 0.911 | 0.82 | 1.01 | 0.839 | 0.945 |
| CAL-12T | 0.573 | 0.691 | 0.638 | 0.424 | 0.357 | 0.672 | 0.567 | 0.508 | 0.236 | 0.192 | 0.577 | 0.971 | 0.692 | 0.849 | 1.01 | 0.946 | 0.82 | 0.835 | 0.936 | 1.01 |
| NCI-H1755 | 0.355 | 0.453 | 0.422 | 0.411 | 0.325 | 0.647 | 0.617 | 0.612 | 0.549 | 0.476 | 0.782 | 0.859 | 0.788 | 0.743 | 0.813 | 0.952 | 0.988 | 0.949 | 0.961 | 0.93 |
